Test results reported in PubChem BioAssay (NCI).
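All cell lines were grown in 96-well plates and treated with compound for 48 hours. Abbreviation: GI50, concentration required for 50% inhibition of growth. Definition used: TGI = concentration required for complete inhibition of growth.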

How the values were obtained:
Experiment in all cases: NCI-60 cell line screen, 48 h; in the data active = GI50 below about 0.43 µM; inactive = the rest
786-0 renal = test system: 786-0 renal
A498 renal = test system: A498 renal
A549 NSCLC = test system: A549 NSCLC
ACHN renal = test system: ACHN renal
BT-549 breast = test system: BT-549 breast
CAKI-1 renal = test system: CAKI-1 renal
CCRF-CEM leukemia = test system: CCRF-CEM leukemia
COLO 205 colon = test system: COLO 205 colon
EKVX NSCLC = test system: EKVX NSCLC
HCC-2998 colon = test system: HCC-2998 colon
HCT-15 colon = test system: HCT-15 colon
HL-60(TB) leukemia = test system: HL-60(TB) leukemia
HOP-62 NSCLC = test system: HOP-62 NSCLC
HOP-92 NSCLC = test system: HOP-92 NSCLC
HT29 colon = test system: HT29 colon
IGROV1 ovarian = test system: IGROV1 ovarian
K-562 leukemia = test system: K-562 leukemia
KM12 colon = test system: KM12 colon
M14 melanoma = test system: M14 melanoma
MALME-3M melanoma = test system: MALME-3M melanoma
MCF7 breast = test system: MCF7 breast
MDA-MB-231 breast = test system: MDA-MB-231 breast
MDA-MB-435 = test system: MDA-MB-435
MOLT-4 leukemia = test system: MOLT-4 leukemia
NCI-H226 lung = test system: NCI-H226 lung
NCI-H23 lung = test system: NCI-H23 lung
NCI-H460 lung = test system: NCI-H460 lung
NCI/ADR-RES ovarian = test system: NCI/ADR-RES ovarian
OVCAR-3 ovarian = test system: OVCAR-3 ovarian
OVCAR-4 ovarian = test system: OVCAR-4 ovarian
OVCAR-5 ovarian = test system: OVCAR-5 ovarian
OVCAR-8 ovarian = test system: OVCAR-8 ovarian
PC-3 prostate = test system: PC-3 prostate
RPMI-8226 leukemia = test system: RPMI-8226 leukemia
RXF 393 renal = test system: RXF 393 renal
SF-268 CNS = test system: SF-268 CNS
SF-295 CNS = test system: SF-295 CNS
SF-539 CNS = test system: SF-539 CNS
SK-MEL-28 melanoma = test system: SK-MEL-28 melanoma
SN12C renal = test system: SN12C renal
SNB-19 CNS = test system: SNB-19 CNS
SR leukemia = test system: SR leukemia
SW-620 colon = test system: SW-620 colon
T-47D breast = test system: T-47D breast
TK-10 renal = test system: TK-10 renal
U251 CNS = test system: U251 CNS
UACC-257 melanoma = test system: UACC-257 melanoma
UACC-62 melanoma = test system: UACC-62 melanoma
UO-31 renal = test system: UO-31 renal
DU-145 prostate = test system: DU-145 prostate
HCT-116 colon = test system: HCT-116 colon
HS 578T breast = test system: HS 578T breast
LOX IMVI melanoma = test system: LOX IMVI melanoma
NCI-H522 lung = test system: NCI-H522 lung
SK-MEL-2 melanoma = test system: SK-MEL-2 melanoma
SK-MEL-5 melanoma = test system: SK-MEL-5 melanoma
SK-OV-3 ovarian = test system: SK-OV-3 ovarian
SNB-75 CNS = test system: SNB-75 CNS

CCCCNC(=S)/N=C/c1c(O)c2ccccc2[nH]c1=O
> 10 µM: TGI (786-0 renal) | TGI (A498 renal) | TGI (A549 NSCLC) | TGI (ACHN renal) | TGI (BT-549 breast) | TGI (CAKI-1 renal) | TGI (CCRF-CEM leukemia) | TGI (COLO 205 colon) | TGI (EKVX NSCLC) | TGI (HCC-2998 colon) | TGI (HCT-15 colon) | TGI (HL-60(TB) leukemia) | TGI (HOP-62 NSCLC) | TGI (HOP-92 NSCLC) | TGI (HT29 colon) | TGI (IGROV1 ovarian) | TGI (K-562 leukemia) | TGI (KM12 colon) | TGI (M14 melanoma) | TGI (MALME-3M melanoma) | TGI (MCF7 breast) | TGI (MDA-MB-231 breast) | TGI (MDA-MB-435) | TGI (MOLT-4 leukemia) | TGI (NCI-H226 lung) | TGI (NCI-H23 lung) | TGI (NCI-H460 lung) | TGI (NCI/ADR-RES ovarian) | TGI (OVCAR-3 ovarian) | TGI (OVCAR-4 ovarian) | TGI (OVCAR-5 ovarian) | TGI (OVCAR-8 ovarian) | TGI (PC-3 prostate) | TGI (RPMI-8226 leukemia) | TGI (RXF 393 renal) | TGI (SF-268 CNS) | TGI (SF-295 CNS) | TGI (SF-539 CNS) | TGI (SK-MEL-28 melanoma) | TGI (SN12C renal) | TGI (SNB-19 CNS) | TGI (SR leukemia) | TGI (SW-620 colon) | TGI (T-47D breast) | TGI (TK-10 renal) | TGI (U251 CNS) | TGI (UACC-257 melanoma) | TGI (UACC-62 melanoma) | TGI (UO-31 renal)

Cc1c(Sc2ccccc2)[n+](=O)c2cc(Cl)c(Cl)cc2n1[O-]
44.6 µM: TGI (UACC-257 melanoma)
41.6 µM: TGI (ACHN renal)
70.6 µM: TGI (TK-10 renal)
11.3 µM: TGI (K-562 leukemia)
38 µM: TGI (IGROV1 ovarian)
51.4 µM: TGI (HOP-92 NSCLC)
> 100 µM: TGI (A549 NSCLC) | TGI (CAKI-1 renal) | TGI (CCRF-CEM leukemia) | TGI (COLO 205 colon) | TGI (EKVX NSCLC) | TGI (HCC-2998 colon) | TGI (HCT-15 colon) | TGI (HOP-62 NSCLC) | TGI (HS 578T breast) | TGI (HT29 colon) | TGI (KM12 colon) | TGI (M14 melanoma) | TGI (MCF7 breast) | TGI (MDA-MB-231 breast) | TGI (MDA-MB-435) | TGI (NCI-H226 lung) | TGI (NCI-H23 lung) | TGI (NCI-H460 lung) | TGI (NCI/ADR-RES ovarian) | TGI (OVCAR-4 ovarian) | TGI (OVCAR-5 ovarian) | TGI (OVCAR-8 ovarian) | TGI (PC-3 prostate) | TGI (RPMI-8226 leukemia) | TGI (SF-268 CNS) | TGI (SF-295 CNS) | TGI (SF-539 CNS) | TGI (SK-MEL-2 melanoma) | TGI (SK-MEL-28 melanoma) | TGI (SK-MEL-5 melanoma) | TGI (SK-OV-3 ovarian) | TGI (SN12C renal) | TGI (SNB-19 CNS) | TGI (SNB-75 CNS) | TGI (T-47D breast) | TGI (U251 CNS) | TGI (UACC-62 melanoma) | TGI (UO-31 renal)
90.1 µM: TGI (RXF 393 renal)
33.3 µM: TGI (MOLT-4 leukemia)
57.7 µM: TGI (NCI-H522 lung)
36.7 µM: TGI (LOX IMVI melanoma)
60.4 µM: TGI (OVCAR-3 ovarian)
43.4 µM: TGI (786-0 renal)
58.9 µM: TGI (BT-549 breast)
96.1 µM: TGI (SW-620 colon)
59.4 µM: TGI (HCT-116 colon)
44.8 µM: TGI (DU-145 prostate)
inactive: GI50 (786-0 renal) 22 µM | GI50 (A549 NSCLC) > 100 µM | GI50 (ACHN renal) 20.5 µM | GI50 (BT-549 breast) 27.8 µM | GI50 (CAKI-1 renal) 42 µM | GI50 (CCRF-CEM leukemia) 32.8 µM | GI50 (COLO 205 colon) 49 µM | GI50 (DU-145 prostate) 23.4 µM | GI50 (EKVX NSCLC) > 100 µM | GI50 (HCC-2998 colon) 34.1 µM | GI50 (HCT-116 colon) 27.4 µM | GI50 (HCT-15 colon) 53.7 µM | GI50 (HOP-62 NSCLC) > 100 µM | GI50 (HOP-92 NSCLC) 20 µM | GI50 (HS 578T breast) > 100 µM | GI50 (HT29 colon) 79.9 µM | GI50 (IGROV1 ovarian) 15.5 µM | GI50 (K-562 leukemia) 2.22 µM | GI50 (KM12 colon) > 100 µM | GI50 (LOX IMVI melanoma) 18.4 µM | GI50 (M14 melanoma) 46.8 µM | GI50 (MCF7 breast) 38.3 µM | GI50 (MDA-MB-231 breast) 35.7 µM | GI50 (MDA-MB-435) 95.6 µM | GI50 (MOLT-4 leukemia) 15 µM | GI50 (NCI-H226 lung) > 100 µM | GI50 (NCI-H23 lung) 33.2 µM | GI50 (NCI-H460 lung) > 100 µM | GI50 (NCI-H522 lung) 23.6 µM | GI50 (NCI/ADR-RES ovarian) > 100 µM | GI50 (OVCAR-3 ovarian) 23.3 µM | GI50 (OVCAR-4 ovarian) 85.3 µM | GI50 (OVCAR-5 ovarian) > 100 µM | GI50 (OVCAR-8 ovarian) 25.6 µM | GI50 (PC-3 prostate) > 100 µM | GI50 (RPMI-8226 leukemia) 51.7 µM | GI50 (RXF 393 renal) 23.2 µM | GI50 (SF-268 CNS) > 100 µM | GI50 (SF-295 CNS) > 100 µM | GI50 (SF-539 CNS) 89.9 µM | GI50 (SK-MEL-2 melanoma) > 100 µM | GI50 (SK-MEL-28 melanoma) > 100 µM | GI50 (SK-MEL-5 melanoma) 54.1 µM | GI50 (SK-OV-3 ovarian) > 100 µM | GI50 (SN12C renal) > 100 µM | GI50 (SNB-19 CNS) > 100 µM | GI50 (SNB-75 CNS) > 100 µM | GI50 (SW-620 colon) 29.5 µM | GI50 (T-47D breast) 36.2 µM | GI50 (TK-10 renal) 26.1 µM | GI50 (U251 CNS) > 100 µM | GI50 (UACC-257 melanoma) 16 µM | GI50 (UACC-62 melanoma) > 100 µM | GI50 (UO-31 renal) > 100 µM
